Data taken from patent US20090221056A1, “Pathogen-Detecting Cell Preservation Systems” (priority 2005, published 2009).
“Also recorded” adds a separate entry of the source. The star is where a group is joined. Cbz = O=C(OCc1ccccc1)*; CH2F = FC*

How the values were obtained:
[1] = test system: CANARY cells; assay: Toxicity of chemical additives to CANARY cells; details: at 50 μM
[2] = test system: CANARY B cells (expressing a receptor specific for Yersinia pestis); type: cell-based
[3] = test system: CANARY B cells; assay: Viability of CANARY cells after storage with chemical additives; type: cell-based; details: storage at room temperature (1-3 weeks), compared to cells without additive

| Substance | toxicity of additive [1] | activity (antigen detection) of cells stored at room temperature [2] | beneficial effect on stored cells (viability and/or activity) [2] | benefit of treatment to stored cells [2] | viability of cells stored at room temperature [3] | viability of cells stored at room temperature ([3]; listed as Tunicamycin) |
| --- | --- | --- | --- | --- | --- | --- |
| Cbz-WEHD-CH2F | toxic |  |  |  |  |  |
| Cbz-LEHD-CH2F | toxic |  |  |  |  |  |
| tunicamycin |  | increases both cell viability and activity; also recorded: retained detection sensitivity for Yersinia pestis; also recorded: improved both viability and activity | beneficial effects | detrimental | improved both viability and activity | increases both cell viability and activity |
